Where two headings read alike, the source gives them in different places.

The values that follow come from patent US6677383B1, “Hydroxylation activated prodrugs” (De Montfort University, priority 1998, dated 2004).

The nature of data set [1]: MTT cytotoxicity assay, cell line expressing CYP1B1. As to conditions: Chinese hamster, V79mzhu1B1 cells (V79 cells that express CYP1B1).
Protocol: (§1) The cytotoxicity assay method used was a modification of the MTT cytotoxicity assay (Carmichael et al., 1987, Cancer Research, 47: 936). […] Compound stocks were made up as 100 mM in DMSO and stored for no more than one month at 4° C. The plates were then incubated at 37° C., 5% CO2, 100% humidity for a further 48 hours followed by washing by immersion 3 times in Dulbecco's PBS (phosphate buffered saline) A. 50 μl of RPMI 1640 w/o phenol red (Roswell Park Memorial Institute Medium 1640, Life Science International) with 2 mg/ml MTT was then added for four hours as above, excess MTT removed by aspiration and 125 μl of DMSO added on a vortex for 30 minutes to solubilize the product. The absorbance at A450 was recorded and the results expressed as a % survival of carrier only treated controls.
Data set [2] is described as follows: MTT cytotoxicity assay, parental cell line not expressing CYP1B1. The conditions noted are these: Chinese hamster, V79mz cells (parental line that does not express CYP1B1). In general terms: Formazan colour is commonly taken as a measure of viable cells.
Protocol: as §1
The target of data set [3] is T1, CYP1B1 (microsomal preparation of human tumour tissue expressing the CYP1B1 enzyme) (Homo sapiens, UniProt Q16678).
T1 sequence (Q16678 1-543): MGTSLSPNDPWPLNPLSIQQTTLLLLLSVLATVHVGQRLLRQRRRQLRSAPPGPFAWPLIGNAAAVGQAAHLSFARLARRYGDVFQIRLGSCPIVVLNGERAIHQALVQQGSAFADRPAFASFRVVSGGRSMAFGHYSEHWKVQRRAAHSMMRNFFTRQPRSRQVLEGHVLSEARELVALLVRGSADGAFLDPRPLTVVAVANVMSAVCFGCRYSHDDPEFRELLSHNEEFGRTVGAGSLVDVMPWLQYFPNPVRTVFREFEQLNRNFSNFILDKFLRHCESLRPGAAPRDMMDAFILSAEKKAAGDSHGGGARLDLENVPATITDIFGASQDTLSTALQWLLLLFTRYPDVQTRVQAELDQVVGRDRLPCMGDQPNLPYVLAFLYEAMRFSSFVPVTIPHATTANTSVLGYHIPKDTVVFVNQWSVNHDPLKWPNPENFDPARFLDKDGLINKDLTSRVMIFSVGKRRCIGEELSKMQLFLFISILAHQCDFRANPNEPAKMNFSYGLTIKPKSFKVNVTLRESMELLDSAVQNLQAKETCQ
As to conditions: pH 7.6.
Protocol: (§2) A microsomal preparation of human tumour tissue expressing the CYP1B1 enzyme was prepared essentially as described by the method of Barrie et al. (1989. J. Steroid Biochem., 6: 1191-1195)
(§3) Experiment were carried out at 37° C., under yellow light.
(§4) An array of 1.5 ml centrifuge tubes were set up in a water bath shaker under aerobic conditions. To each tube was then added 500 μl of pH 7.6 buffer (0.1 M NaK2PO4), followed by NADPH (5 μl of a 25 mM stock solution). The microsomal preparation (80 μl) was then added and the tubes preincubated for 5 minutes at 37° C. The prodrug substrate was then added (10 μl of a 5 mM stock solution) and incubated for 1 hour at 37° C. After 1 hour the tubes were transferred to an ice/water cooling bath (0° C.). The tubes were then centrifuged at 1 5,000 rpm for 30 minutes. A sample of the supernatant (100 μl) was then taken and analysed by HPLC.
(§5) HPLC conditions: Spherisorb C18 (25 cm×4.6 mm id), used without guard column. Flow rate 1 ml/min. Eluent 75% 0.1 M KH2PO4 and 25% acetonitrile.

For data set [4], the target named is T1, CYP1B1 (microsomal preparation of human tumour tissue expressing the CYP1B1 enzyme). Kind of data set: Metabolism studies with microsomal preparation of human tumour tissue, HPLC detection of the hydroxylated metabolite. The conditions noted are these: tumour microsomes, NADPH, pH 7.6, 1 hour at 37° C., confirmed by synthesis of authentic metabolite.
Protocol: as §2, §3, §4, §5
The subject of data set [5] is V79mz cells (parental cell line which does not express CYP1B1).
Protocol: as §1
The subject of data set [6] is V79mzhu1B1 cells (express the enzyme CYP1B1).
Protocol: as §1
For data set [7] the test system is unchanged. Kind of data set: MTT cytotoxicity assay, cell line expressing CYP1B1. The conditions noted are these: V79 IC50 versus V791B1 IC50.
Protocol: as §1

`COc1cc(C(=O)/C=C/c2ccc(O)cc2)cc(OC)c1OC` [Compound VIII, (E)-1-(4-Hydroxyphenyl)-3-(3,4,5-trimethoxyphenyl)prop-1-en-3-one]: the IC50 at 48 h stood at 1.71 µM in data set [1] and 1.81 µM in data set [2].

For the molecule `Oc1ccc(/C=C/c2cc(O)cc(O)c2)cc1` [Compound IIIc, (E)-(3,4′,5)-trihydroxystilbene], the “aromatic hydroxylation to hydroxylated metabolite” value (from here on “aromatic hydroxylation”) in data set [3] is “converted to the hydroxylated metabolite (E)-(3,3′,4,5′)-tetrahydroxystilbene”.

With `COc1ccc(/C=C(\C#N)c2cccnc2)cc1` [Compound IIa, (Z)-1-Cyano-1-(3-pyridyl)-2-(4-methoxyphenyl)ethene], the IC50 at 48 h in data set [1] came out at 1.63 µM; in data set [2], 1.81 µM. The “aromatic hydroxylation” value in data set [4] is reported as “converted to the hydroxylated metabolite (Z)-1-Cyano-1-(3-pyridyl)-2-(3-hydroxy-4-methoxyphenyl)ethene”.

With `COc1ccc(/C=C/c2ccc(OC)cc2)cc1` [Compound IIIb, (E)-(4,4′)-Dimethoxystilbene], the half-maximal inhibitory concentration (IC50) in data set [5] came out at 58.2 µM; in data set [6], 8.3 µM.

Regarding `COc1ccc(/C=C/C(=O)c2cc(OC)c(OC)c(OC)c2)cc1` [Compound VII, (E)-1-(4-Methoxyphenyl)-3-(3,4,5-trimethoxyphenyl)prop-1-en-3-one], the IC50 at 48 h amounted to 0.005 µM in data set [1] and 1 µM in data set [2]. Also, the “fold more cytotoxic to the cell line expressing CYP1B1 than to the parental cell line not expressing this enzyme” value in data set [7] is given as “around 200 fold”. The “aromatic hydroxylation” value in data set [4] is “converted to the hydroxylated metabolite (E)-1-(3-Hydroxy4-methoxyphenyl)-3-(3,4,5-trimethoxyphenyl)prop-1-en-3-one”.

Usually IC50 stands for the concentration needed to halve the response being measured.
